Reference: patent US10793840B2, “Identifying ligands for bacterial sensors” (William Marsh Rice University, priority 2015, dated 2020)

Tests used:
[1] = system: BAD_0569/BAD_0568-CcaR TCS; conditions: E. coli expressing BAD_0569 and BAD_0568-CcaR, sfGFP from PcpcG2; panel of over 40 gut chemicals
Excerpt: Briefly, the wild type BAD_0569 SK of Bifidobacterium adolescent was expressed in E. coli. A modified cognate response regulator BAD_0568 was simultaneously expressed in E. coli, wherein the native DBD from the Bifidobacterium adolescentis RR was replaced with that of the DBD from the well-characterized OmpR-PhoB family RR CcaR. When phosphorylated, native CcaR activates transcription from PcpcG2, or its derivatives. A superfolder GFP reporter gene (a.k.a. GFP) was expressed from PcpcG2 in the same E. coli. Anydrotetracyline (aTc) induces expression of the BAD_0568-CcaR hybrid, which activates PcpcG2 transcription and thus GFP expression.
We then tested E. coli expressing the hybrid BAD_0569/8 TCS (i.e. BAD_0569 and BAD_0568-CcaR with sfGFP expressed from PcpcG2) in the presence of over 40 chemicals previously found to be enriched in the large intestines of germ-free mice made to carry gut bacteria of obese humans, but not found to be enriched in those mice carrying the gut bacteria of their lean twins.

NarL / PdcuS promoter = conditions: PdcuS promoter repressed by phosphorylated NarL, sfGFP; cited from earlier work

CSCC[C@H](N)C(=O)O [methionine]
response of rewired BAD_0569/8 TCS (sfGFP reporter) to the chemical [1]: largest response

O=[N+]([O-])O [nitrate]
sensitivity of the sensor (NarL / PdcuS promoter): The sensitivity of the sensor is in the sub-mM to mM range for nitrate.
